Source: US20100298370A1, “BENZOTHIAZOLYL THIENOPYRIDINE DERIVATIVES AND USES THEREOF” (priority 2006, published 2010)

Target: T1, VEGF binding to heparin (HS-GAG) (Homo sapiens, UniProt P15692)
T1 construct: purchased Research and Development Systems
T1 sequence (P15692 27-191 isoform P15692-4): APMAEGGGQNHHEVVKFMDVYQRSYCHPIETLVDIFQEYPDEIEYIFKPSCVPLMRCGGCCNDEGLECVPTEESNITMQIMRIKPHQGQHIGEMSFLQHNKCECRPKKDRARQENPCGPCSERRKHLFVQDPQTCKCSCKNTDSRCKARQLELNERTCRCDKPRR
Assay: In vitro VEGF to HS-GAG binding assay (ELISA, heparin-BSA coated plate)
Description: An in vitro assay was used to assess the ability of test compounds of general formulas I and II to inhibit the interaction of VEGF with HS-GAGs. The assay was designed to for determine the concentration required for 50% inhibition (IC-50) for each specific compound. The test compounds were purchased from Life Chemicals Ltd. (Kiev, Ukraine), and the GAG used was heparin (heparin grade I-A; Sigma) conjugated to bovine serum albumin (Sigma) and diluted 1:200 in phosphate-buffered saline (PBS; pH 7.3). The heparin was added to a 96-well polystyrene ELISA plate (NUNC; 0.1 ml per well) and incubated overnight at 4° C. Following the incubation, the plate was washed thoroughly, by immersion, with de-ionized water and then with PBS (pH 7.3) containing Tween 20 (Sigma, 0.05%). The ELISA plate was then blocked with BSA (ICN, 3%, 200 μl per well) for 1 hour at room temperature. Following blocking, the plate was washed with de-ionized water, and then twice with PBS (pH 7.3) containing Tween 20. Recombinant human VEGF (Research and Development Systems) dissolved in PBS supplemented with BSA (0.1%) was added to the ELISA plate. The test compounds were dissolved in DMSO (MERCK), diluted in PBS and added to the wells at concentrations ranging from 0.01 to 200 μM to obtain a final volume 100 μl per well, and incubated for 60 minutes at room temperature with shaking. Following incubation, the plate was washed with de-ionized water and PBS (pH 7.3) containing Tween 20. Anti-human VEGF (1:2000; Research and Development Systems) diluted in PBS supplemented with BSA (1%) was added to the ELISA plate (100 per well) and incubated for 60 minutes at room temperature with shaking. Following incubation, the plate was washed with de-ionized water and then with PBS (pH 7.3) containing Tween 20. Streptavidin-HRP (1:200; Research and Development Systems Cat. No. DY998) diluted in PBS supplemented with BSA (1%) was added to the ELISA plate (100 per well) and incubated for 20 minutes at room temperature with shaking. The plate was then washed with de-ionized water and twice with PBS (pH 7.3) containing Tween 20. The peroxidase substrate chromogen tetramethyl benzidine (TMB; Dako) was added (100 μl per well) to the ELISA plate and incubated at room temperature. After 15 minutes, ELISA Stop Solution (hydrochloric acid 1N, sulfuric acid 3N) was added (100 μl per well) to stop the peroxidase catalyzed colorimetric reaction. The Optical Density (OD) of the samples was measured at 450 nm using an ELISA plate reader (Dynatech MR5000). Data were analyzed with Graphpad Prism software and IC-50 values were determined.
Percent inhibition at 30 μM concentration is shown and for selected compounds IC-50 was established.

SMILES	IC50 [nM]	inhibition at 30 µM [%]
CC(=O)c1ccc(C(=O)Nc2sc3c(c2-c2nc4ccccc4s2)CCN(Cc2ccccc2)C3)cc1 [Compound 8, N-[3-(2-benzothiazolyl)-4,5,6,7-tetrahydro-6-phenylmethylthieno[2,3-c]pyridin-2-yl]-4-acetylbenzamide]	400	82
CCN1CCc2c(sc(NC(=O)c3ccccc3)c2-c2nc3ccccc3s2)C1 [Compound 9, N-[3-(2-benzothiazolyl)-4,5,6,7-tetrahydro-6-ethylthieno[2,3-c]pyridin-2-yl]-benzamide]	500	70
CCN1CCc2c(sc(NC(=O)c3ccc(Cl)cc3)c2-c2nc3ccccc3s2)C1 [Compound 10, N-[3-(2-benzothiazolyl)-4,5,6,7-tetrahydro-6-ethylthieno[2,3-c]pyridin-2-yl]-(4-chloro)benzamide]	–	71
CCN1CCc2c(sc(NC(=O)c3ccc(OC)cc3)c2-c2nc3ccccc3s2)C1 [Compound 11, N-[3-(2-benzothiazolyl)-4,5,6,7-tetrahydro-6-ethylthieno[2,3-c]pyridin-2-yl]-4-methoxybenzamide]	–	41
CN1CCc2c(sc(NC(=O)CCSc3ccc(F)cc3)c2-c2nc3ccccc3s2)C1 [Compound 12, N-[3-(2-benzothiazolyl)-4,5,6,7-tetrahydro-6-methylthieno[2,3-c]pyridin-2-yl]-3-[(4-fluorophenyl)thio]propanamide]	–	62
COc1ccc(C(=O)Nc2sc3c(c2-c2nc4ccccc4s2)CCN(Cc2ccccc2)C3)c(OC)c1 [Compound 13, N-[3-(2-benzothiazolyl)-4,5,6,7-tetrahydro-6-phenylmethylthieno[2,3-c]pyridin-2-yl]-(2,4-dimethoxy)benzamide]	–	64
CCN1CCc2c(sc(NC(=O)c3cc(OC)c(OC)c(OC)c3)c2-c2nc3ccccc3s2)C1 [Compound 14, N-[3-(2-benzothiazolyl)-4,5,6,7-tetrahydro-6-ethylthieno[2,3-c]pyridin-2-yl]-(3,4,5-trimethoxy)benzamide]	200	73
COc1cc2ccccc2cc1C(=O)Nc1sc2c(c1-c1nc3ccccc3s1)CCN(C)C2 [Compound 15, N-[3-(2-benzothiazolyl)-4,5,6,7-tetrahydro-6-methylthieno[2,3-c]pyridin-2-yl]-3-methoxy-2-naphthalenecarboxamide]	–	43
CN1CCc2c(sc(NC(=O)c3cccc(C(F)(F)F)c3)c2-c2nc3ccccc3s2)C1 [Compound 16, N-[3-(2-benzothiazolyl)-4,5,6,7-tetrahydro-6-methylthieno[2,3-c]pyridin-2-yl]-3-trifluoromethylbenzamide]	–	61
CCN1CCc2c(sc(NC(=O)c3cccc(N4C(=O)CCC4=O)c3)c2-c2nc3ccccc3s2)C1 [Compound 17, N-[3-(2-benzothiazolyl)-4,5,6,7-tetrahydro-6-ethylthieno[2,3-c]pyridin-2-yl]-3-(2,5-dioxo-1-pyrrolidinyl)benzamide]	300	77
CC(C)N1CCc2c(sc(NC(=O)CCc3ccccc3)c2-c2nc3ccccc3s2)C1 [Compound 18, N-[3-(2-benzothiazolyl)-4,5,6,7-tetrahydro-6-(1-methylethyl)thieno[2,3-c]pyridin-2-yl]-3-benzenepropaneamide]	–	44
CC(C)Oc1ccc(C(=O)Nc2sc3c(c2-c2nc4ccccc4s2)CCN(C)C3)cc1 [Compound 19, N-[3-(2-benzothiazolyl)-4,5,6,7-tetrahydro-6-methylthieno[2,3-c]pyridin-2-yl]-4-(1-methylethoxy)benzamide]	–	49
COC(=O)c1ccc(C(=O)Nc2sc3c(c2-c2nc4ccccc4s2)CCN(C(C)C)C3)cc1 [Compound 20]	240	77
CC(C)(C)C(=O)Nc1sc2c(c1-c1nc3ccccc3s1)CCN(Cc1ccccc1)C2 [Compound 21, N-[3-(2-benzothiazolyl)-4,5,6,7-tetrahydro-6-phenylmethyllthieno[2,3-c]pyridin-2-yl]-2,2-dimethylpropaneamide]	900	79
O=C(Nc1sc2c(c1-c1nc3ccccc3s1)CCN(Cc1ccccc1)C2)c1cc(Cl)sc1Cl [Compound 22, N-[3-(2-benzothiazolyl)-4,5,6,7-tetrahydro-6-phenylmethylthieno[2,3-c]pyridin-2-yl]-3-(2,5-dichloro)thiophenecarboxamide]	–	39
O=C(Nc1sc2c(c1-c1nc3ccccc3s1)CCN(Cc1ccccc1)C2)c1cccs1 [Compound 23, N-[3-(2-benzothiazolyl)-4,5,6,7-tetrahydro-6-phenylmethylthieno[2,3-c]pyridin-2-yl]-2-thiophenecarboxamide]	–	57
O=C(Nc1sc2c(c1-c1nc3ccccc3s1)CCN(Cc1ccccc1)C2)c1ccc(Br)s1 [Compound 24, N-[3-(2-benzothiazolyl)-4,5,6,7-tetrahydro-6-phenylmethylthieno[2,3-c]pyridin-2-yl]-2-(5-bromo)thiophenecarboxamide]	–	52
CN1CCc2c(sc(NC(=O)c3ccco3)c2-c2nc3ccccc3s2)C1 [Compound 25, N-[3-(2-benzothiazolyl)-4,5,6,7-tetrahydro-6-methylthieno[2,3-c]pyridin-2-yl]-2-furancarboxamide]	–	55
CC(C)N1CCc2c(sc(NC(=O)C3CCCCC3)c2-c2nc3ccccc3s2)C1 [Compound 26, N-[3-(2-benzothiazolyl)-4,5,6,7-tetrahydro-6-(1-methylethyl)thieno[2,3-c]pyridin-2-yl]-cyclohexylcarboxamide]	–	36
O=C(COc1ccc(Cl)cc1)Nc1sc2c(c1-c1nc3ccccc3s1)CCN(Cc1ccccc1)C2 [Compound 27, N-[3-(2-benzothiazolyl)-4,5,6,7-3-tetrahydro-6-phenylmethylthieno[2,3-c]pyridin-2-yl]-2-(4-chlorophenoxy)acetamide]	–	55
CCN1CCc2c(sc(NC(=O)c3cc4cc([N+](=O)[O-])ccc4s3)c2-c2nc3ccccc3s2)C1 [Compound 28, N-[3-(2-benzothiazolyl)-4,5,6,7-tetrahydro-6-ethylthieno[2,3-c]pyridin-2-yl]-benzo[b]thiophene-5-nitro-2-carboxamide]	–	35
CCN1CCc2c(sc(NC(=O)CCSc3ccccc3)c2-c2nc3ccccc3s2)C1 [Compound 29, N-[3-(2-benzothiazolyl)-4,5,6,7-tetrahydro-6-ethylthieno[2,3-c]pyridin-2-yl]-3-(phenylthio)propanamide]	1300	72
CN1CCc2c(sc(NC(=O)CN3C(=O)c4ccccc4C3=O)c2-c2nc3ccccc3s2)C1 [Compound 30, N-[3-(2-benzothiazolyl)-4,5,6,7-tetrahydro-6-methylthieno[2,3-c]pyridin-2-yl]-1,3-dihydro-1,3-dioxo-2H-isoindole-2-acetamide]	–	29
CC(C)N1CCc2c(sc(NC(=O)CN3C(=O)CCC3=O)c2-c2nc3ccccc3s2)C1 [Compound 31, N-[3-(2-benzothiazolyl)-4,5,6,7-tetrahydro-6-(methylethyl)thieno[2,3-c]pyridin-2-yl]-(2,5-dioxo-1-pyrrolidine)acetamide]	–	37
CN1CCc2c(sc(NC(=O)c3cc4c(ccc5ccccc54)oc3=O)c2-c2nc3ccccc3s2)C1 [Compound 32, N-[3-(2-benzothiazolyl)-4,5,6,7-tetrahydro-6-methylthieno[2,3-c]pyridin-2-yl]-3-oxo-3H-naphtho[2,1-b]pyran-2-carboxamide]	–	31
O=C(Nc1sc2c(c1-c1nc3ccccc3s1)CCN(Cc1ccccc1)C2)C1COc2ccccc2O1 (centres unmarked) [Compound 33, N-[3-(2-benzothiazolyl)-4,5,6,7-tetrahydro-6-phenylmethylthieno[2,3-c]pyridin-2-yl]-2,3-dihydro-1,4-benzodioxin-2-carboxamide]	–	50
CN1CCc2c(sc(NC(=O)c3ccc4ncsc4c3)c2-c2nc3ccccc3s2)C1 [Compound 34, N-[3-(2-benzothiazolyl)-4,5,6,7-tetrahydro-6-methylthieno[2,3-c]pyridin-2-yl]-6-benzothiazolecarboxamide]	200	77
